Reference: patent US9387213B2, “Small molecules inhibiting oncoprotein Myc” (Health Research, Inc., priority 2012, dated 2016)

Key:
[1] = test system: SK-Mel-103; assay: Suppression of proliferation / senescence induction in melanoma line; assay type: cell-based; conditions: Homo sapiens
From the text: (§1) 260 analogs of N77A7 were selected from several commercially available libraries of small molecules based on the structural similarities with N77A7. The compounds were screened for the ability to permanently suppress proliferation and induce senescence in cells from melanoma lines SK-Mel-19 and SK-Mel-103. Based on the above-described screening procedure, seven small molecules were identified as having IC50 values lower than that of N77A7.

[2] = test system: SK-Mel-19; assay: as above; assay type: cell-based; conditions: Homo sapiens, SK-MEL19
From the text: as §1

[3] = in vitro
Method: Additionally, several of the N77A7 analogs were subjected to the test for the metabolic stability in human and mouse liver microsomes. Briefly, 1 μM of test compound was incubated with microsomal protein (human liver microsomes: 0.5 mg/mL; mouse liver microsomes 0.5 mg/mL) and buffer (100 mM potassium phosphate, pH 7.4, 5 mM magnesium chloride). The positive control was 5 μM testosterone. The reaction was equilibrated at 37 C in a shaking water bath for 3 to 5 minutes. After equilibration, an aliquot was removed and combined with 50/50 acetonitrile/water containing 0.1% formic acid and internal standard to terminate the reaction. 1 mM NADPH was immediately added and the tube was returned to the water bath. Five sample time points were taken (0, 10, 20, 30, and 60 minutes). Aliquots were removed and combined with 50/50 acetonitrile/water containing 0.1% formic acid and internal standard to terminate the reaction. The samples were mixed for 10 minutes and centrifuged. The supernatant from each sample was diluted (if necessary) and then transferred to vials for analysis by LC-MS/MS for the test compound and internal standard without calibration standards. The percent remaining at each time point was determined by the test compound's peak area response ratio versus the 0 minute sample.

[4] = test system: HO-null cells; assay: Secondary filter for Myc specificity: cell growth inhibition, methylene blue staining; assay type: cell-based; conditions: Rattus norvegicus, 72 h, read-out: ID50 HO-null
Method: (§2) FIG. 4 illustrates the myc specificity of tested compounds. Rat1a cells expressing c-myc, L-myc or N-myc or lacking any Myc (null) were treated for 72 h with a range of hit compound concentrations. The cells were then fixed and stained with methylene blue and the percentage of cells in the presence of compound compared to DMSO only control was calculated.
(§3) Validated hits were divided into classes when two or more compounds shared significant structural similarity. The ID50 for N-myc transactivation (the inhibitory dose resulting in 50% decrease in luciferase activity) for each hit was calculated from the dose-response N-myc responsive reporter assay. Compounds within each class were ranked by their ID50 for N-myc transactivation and the best compounds within each class were chosen for further studies. In addition, the best of the structurally unique compounds were also analyzed. A total of 46 hits were passed through a secondary filter designed to determine the specificity of the hits for Myc proteins. For this filter, we used a panel of cell lines derived from Rat1a cells (kindly provided by Michael Cole, Dartmouth University): HO-null-c-Myc deficient cells due to homologous recombination that express neither N-myc nor L-myc HO-c-Myc, HO-L-myc and HO-N-myc derived by retroviral transduction of the corresponding Myc genes into HO-null cells. Since each cell line expresses only a single Myc or no Myc family members, we could identify compounds that act through Myc family members as well as which Myc family members. […] The 18 Myc-specific compounds identified during the screening and filtering process are presented in Table 1 and represent distinct classes of molecules, including pyrazoles (e.g., N147A7, N47E10, N147G5), tetrazoles (e.g., N77A7) and 3-bromophenol (e.g., N4G6).

[5] = test system: HO-N-myc cells; assay: as above; assay type: cell-based, rat; conditions: for Myc Index N: ID50 in HO-null cells divided by ID50 in HO—N-myc cells; for IC50: Rattus norvegicus, cell growth inhibition, 72 h, methylene blue, read-out: ID50 HO—N-myc
Method: as §2, §3

[6] = test system: HO-c-Myc cells; assay: as above; assay type: cell-based, rat; conditions: for Myc Index C: ID50 in HO-null cells divided by ID50 in HO-c-myc cells; for IC50: Rattus norvegicus, cell growth inhibition, 72 h, methylene blue, read-out: ID50 HO-c-myc
Method: as §2, §3

[7] = human, microsomes, 0 h, 1 μM, pH 7.4
[8] = human, microsomes, 1 μM, pH 7.4
[9] = human, microsomes, 0.5 h, 1 μM, pH 7.4
[10] = human, microsomes, 1 h, 1 μM, pH 7.4
[11] = mouse, microsomes, 0 h, 1 μM, pH 7.4
[12] = mouse, microsomes, 1 μM, pH 7.4
[13] = mouse, microsomes, 0.5 h, 1 μM, pH 7.4
[14] = mouse, microsomes, 1 h, 1 μM, pH 7.4

Row | SMILES | IC50 [4] [µM] | Myc Index N [5] | IC50 [5] [µM] | Myc Index C [6] | IC50 [6] [µM] | further results
1 | Cc1ccc(/C=N/NC(=O)c2cc(-c3ccccc3)n[nH]2)c(O)c1 [Compound 1] | – | – | – | – | – | IC50 [1]: 2.5 µM; IC50 [2]: 4 µM
2 | CCN(CC)c1ccc(/C=N/NC(=O)Cn2c3ccccc3c(=O)c3ccccc32)c(O)c1 [Compound 2] | – | – | – | – | – | IC50 [1]: 0.4 µM; IC50 [2]: 0.4 µM; Percent Remaining 0 min [3, 7]: 100%; Half-life [3, 8]: >60 min; Percent Remaining 10 min [3, 8]: 119%; Percent Remaining 20 min [3, 8]: 91%; Percent Remaining 30 min [3, 9]: 83%; Percent Remaining 60 min [3, 10]: 74%; half-life at 1 µM ([3]; human, microsomes, pH 7.4): > 60 min; microsomal CLint at 1 μM ([3]; human, microsomes, pH 7.4): < 20 µL/min/mg; Percent Remaining 0 min [3, 11]: 100%; Percent Remaining 10 min [3, 12]: 45%; Percent Remaining 20 min [3, 12]: 32%; Percent Remaining 30 min [3, 13]: 26%; Percent Remaining 60 min [3, 14]: 21%; half-life at 1 µM ([3]; mouse, microsomes, pH 7.4): 13.5 min; microsomal CLint at 1 μM ([3]; mouse, microsomes, pH 7.4): 100 µL/min/mg
3 | CCN(CC)c1ccc(/C=N/NC(=O)c2cc(C)n[nH]2)c(O)c1 [Compound 3] | – | – | – | – | – | IC50 [1]: 0.5 µM; IC50 [2]: 0.5 µM; Percent Remaining 0 min [3, 7]: 100%; Percent Remaining 10 min [3, 8]: 93%; Percent Remaining 20 min [3, 8]: 66%; Percent Remaining 30 min [3, 9]: 49%; Percent Remaining 60 min [3, 10]: 24%; half-life at 1 µM ([3]; human, microsomes, pH 7.4): 29.5 min; microsomal CLint at 1 μM ([3]; human, microsomes, pH 7.4): 47 µL/min/mg; Percent Remaining 0 min [3, 11]: 100%; Percent Remaining 10 min [3, 12]: 39%; Percent Remaining 20 min [3, 12]: 12%; Percent Remaining 30 min [3, 13]: 3.7%; Percent Remaining 60 min [3, 14]: <1.0%; half-life at 1 µM ([3]; mouse, microsomes, pH 7.4): 7 min; microsomal CLint at 1 μM ([3]; mouse, microsomes, pH 7.4): 200 µL/min/mg
4 | CCN(CC)c1ccc(/C=N\NC(=O)c2nnn(-c3nonc3N)c2CN2CCCCCC2)c(O)c1 [Compound 4] | – | – | – | – | – | IC50 [1]: 0.1 µM; IC50 [2]: 0.15 µM; Percent Remaining 0 min [3, 7]: 100%; Percent Remaining 10 min [3, 8]: 56%; Percent Remaining 20 min [3, 8]: 37%; Percent Remaining 30 min [3, 9]: 28%; Percent Remaining 60 min [3, 10]: 20%; half-life at 1 µM ([3]; human, microsomes, pH 7.4): 16 min; microsomal CLint at 1 μM ([3]; human, microsomes, pH 7.4): 87 µL/min/mg; Percent Remaining 0 min [3, 11]: 100%; Percent Remaining 10 min [3, 12]: 3.1%; Percent Remaining 20 min [3, 12]: 1.8%; Percent Remaining 30 min [3, 13]: 1.3%; Percent Remaining 60 min [3, 14]: <1.0%; half-life at 1 µM ([3]; mouse, microsomes, pH 7.4): 2 min; microsomal CLint at 1 μM ([3]; mouse, microsomes, pH 7.4): 690 µL/min/mg
5 | Nc1nonc1-n1nnc(C(=O)N/N=C/c2ccccc2O)c1CN1CCc2ccccc2C1 [Compound 5] | – | – | – | – | – | IC50 [1]: 0.35 µM; IC50 [2]: 0.6 µM
6 | O=C(COc1ccc2ccccc2c1)N/N=C\c1cc(O)c(O)c(Br)c1 [Compound N4D2] | > 100 | >1.1 | 88 | >3 | 33.8 | –
7 | COc1ccc(OCC(=O)N/N=C\c2cc(O)c(O)c(Br)c2)c(Br)c1 [Compound N4G6] | > 100 | >10 | 10.2 | >3 | 32.6 | –
8 | O=C(Oc1c(C(=O)Nc2ccc(Cl)c([N+](=O)[O-])c2)ccc2ccccc12)c1ccccc1 [Compound N6A8] | 21.1 | 2.2 | 9.71 | 2.4 | 8.86 | –
9 | O=c1[nH]c2ccc(/N=C/c3cn(Cc4ccc(Cl)cc4Cl)c4ccccc34)cc2[nH]1 [Compound N18C5] | > 100 | >6 | 16 | – | > 100 | –
10 | CC(C)(C)c1cc(C(=O)N/N=C/c2ccc(O)cc2O)n(-c2ccccc2)n1 [Compound N47E10] | 7.21 | 5 | 1.44 | 2.8 | 2.54 | –
11 | c1ccc(-c2nnc(-c3ccccn3)nc2-c2ccccc2)cc1 [Compound N49C4] | 159 | 8.1 | ~728 | – | 19.6 | –
12 | CC(=O)NC(c1ccc2c(c1)OCO2)c1ccc2cccnc2c1O (stereo not drawn) [Compound N103A8] | 7.57 | 4.5 | 1.69 | 4.7 | 1.62 | –
13 | O=[N+]([O-])c1cccc(Nc2ncnc3ccc(Br)cc23)c1 [Compound N117E2] | > 50 | >6 | 8.8 | >7 | 7.49 | –
14 | CC(C)Nc1ncnc2ccc(Br)cc12 [Compound N117G10] | 28.2 | 6 | 4.58 | 4.5 | 6.27 | –
15 | O=C(NC(NC(=S)Nc1ccc(I)cc1)C(Cl)(Cl)Cl)c1cccc([N+](=O)[O-])c1 (stereo not drawn) [Compound N121F3] | 23.5 | 2.4 | 9.7 | 2.1 | 11.3 | –
16 | CCOc1cccc(/C=N/NC(=O)CSc2nc3ccccc3[nH]2)c1O [Compound N144G3] | 83.2 | 4.7 | 17.8 | 3.22 | 25.8 | –
17 | O=C(N/N=C/c1c(O)ccc2ccccc12)c1cc(C23CC4CC(CC(C4)C2)C3)n[nH]1 [Compound N147A7] | 5.12 | 2.7 | 1.9 | 1.3 | 3.94 | –
18 | C=CCc1cccc(/C=N/NC(=O)c2cc(C(C)(C)C)n[nH]2)c1O [Compound N147G5] | > 25 | >5 | 5 | >6 | 4.2 | –
19 | O=C(N/N=C\c1cc(Cc2ccccc2Cl)ccc1O)c1cncc(Br)c1 [Compound N171H10] | > 25 | >6 | 4 | >10 | 2.6 | –
20 | CN1C(=O)/C(=C\c2cn(Cc3ccccc3)c3ccccc23)C(=O)NC1=S [Compound N423F7] | 1980 | 17 | 120 | 22 | 89.1 | –
21 | CCN(CC)c1ccc(/C=N/NC(=O)c2cc(Br)ccc2O)c(O)c1 [Compound N6008] | > 25 | >11 | 2.34 | >11 | 2.32 | –
22 | C[C@]12CC[C@H]3[C@@H](CCC4=CC(=O)CC[C@@]43C)[C@@H]1CC[C@@H]2O [Testosterone, testosterone, reference compound] | – | – | – | – | – | Percent Remaining 10 min ([3]; human liver microsomes 0.5 mg/mL, 1 μM test compound (testosterone 5 μM)): 78%; Percent Remaining 30 min ([3]; human liver microsomes 0.5 mg/mL, 1 μM test compound (testosterone 5 μM), 30 min): 40%; Percent Remaining 60 min ([3]; human liver microsomes 0.5 mg/mL, 1 μM test compound (testosterone 5 μM), 60 min): 19%; Percent Remaining 0 min ([3]; human liver microsomes 0.5 mg/mL, 1 μM test compound (testosterone positive control 5 μM), 0 min): 100%; half-life at 1 µM ([3]; human, microsomes, pH 7.4): 23.9 min; Percent Remaining 10 min ([3]; mouse liver microsomes 0.5 mg/mL, 1 μM test compound (testosterone 5 μM)): 19%; Percent Remaining 30 min ([3]; mouse liver microsomes 0.5 mg/mL, 1 μM test compound (testosterone 5 μM), 30 min): <1.0%; Percent Remaining 60 min ([3]; mouse liver microsomes 0.5 mg/mL, 1 μM test compound (testosterone 5 μM), 60 min): <1.0%; Percent Remaining 0 min ([3]; mouse liver microsomes 0.5 mg/mL, 1 μM test compound (testosterone positive control 5 μM), 0 min): 100%; half-life at 1 µM ([3]; mouse, microsomes, pH 7.4): 4.2 min
